Results as given in patent EP0240392A1, “Compounds of the cyclophosphazene type, process for their preparation and pharmaceutical preparation containing them” (CENTRE NATIONAL DE LA RECHERCHE SCIENTIFIQUE (CNRS), priority 1986, dated 1987).
Marks after values point to notes of the source that are not given here.

Tests used:
[1] = system: RETICULO SARCOME M5076 MURIN; assay: Antitumour activity on murine M5076 reticulum sarcoma implanted i.m. in mice; assay type: in vivo, souris C57Bl/6; settings: for Poids corporel (g±S.E.) / Poids de la rate (mg±S.E.) / Poids de la tumeur (g±S.E.) / Poids du foie (g±S.E.): jour 23; for nombre de souris vivantes/total: Tableau 5
Excerpt: (§1) Les tests d'activité antitumorale ont été conduits au sein du Screening and Pharmacology Group de l'E.O.R.T.C., implanté à l'Institut Mario Negri de Milan.
(§2) Ces essais ont été conduits soit en mono-injection à différentes doses au jour J+1 suivant la greffe de la tumeur, soit en poly-injections chroniques Q1D, soit en protocoles Q4D.

MELANOME B16 = assay: Antitumour activity on B16 melanoma implanted i.m. in mice; assay type: in vivo, souris C57B1/6
Excerpt: as §1, §2
(§3) L'activité antitumorale est mesurée par le rapport T/C %, T (en jours) étant le durée moyenne de vie des souris traitées, C (en jours) étant la durée moyenne de vie des souris témoins.
(§4) L'effet thérapeutique est considéré comme significatif quant T/C % est supérieur ou égal à 125.

LEUCEMIE L1210 = assay: Antitumour activity on L1210 leukemia implanted i.p. in mice; assay type: in vivo, souris CD2F1; design: key to T/C (%): Δ: 2 souris mortes avant le 5ème jour, 1 souris au jour 6, 2 souris au jour 16 et la dernière était encore vivante après le 40ème jour
Excerpt: as §1, §2, §3, §4

[2] = 250 mg/kg i.p. x j 1,5,9, jour 21
[3] = 300 mg/kg i.p. x j 1,5,9, jour 21
[4] = 200 mg/kg i.p. j 1,5,9, jour 27
[5] = 300 mg/kg i.p. j 1,5,9, jour 27

Compound: C(CCN1CCCNP12=NP(N1CC1)(N1CC1)=NP(N1CC1)(N1CC1)=N2)CN1CCCNP12=NP(N1CC1)(N1CC1)=NP(N1CC1)(N1CC1)=N2 (stereo not drawn) [SPM]
- Volume moyen de la tumeur (cm^3 ± S.E.) [1, 2]: 1,02±0,08 cm^3
- nombre de souris avec tumeur/total [1, 2]: 8/9
- Poids corporel (g±S.E.) ([1]; 250 mg/kg i.p. x j 1,5,9): 20,16±0,47 g
- Poids de la rate (mg±S.E.) ([1]; 250 mg/kg i.p. x j 1,5,9): 144,5± 7,3 mg
- Poids de la tumeur (g±S.E.) ([1]; 250 mg/kg i.p. x j 1,5,9): 2,4530±0,18 g
- Poids du foie (g±S.E.) ([1]; 250 mg/kg i.p. x j 1,5,9): 1,2015±0,04 g
- nombre de souris avec tumeur/total ([1]; 300 mg/kg i.p. x j 1,5,9, jour 14): - (0/10)
- Volume moyen de la tumeur (cm^3 ± S.E.) [1, 3]: 0,94±0,09 cm^3
- nombre de souris avec tumeur/total [1, 3]: 9/10
- Poids corporel (g±S.E.) ([1]; 300 mg/kg i.p. x j 1,5,9): 20,20±0,53 g
- Poids de la rate (mg±S.E.) ([1]; 300 mg/kg i.p. x j 1,5,9): 125,6±10,8 mg
- Poids de la tumeur (g±S.E.) ([1]; 300 mg/kg i.p. x j 1,5,9): 2,2664±0,19 g
- Poids du foie (g±S.E.) ([1]; 300 mg/kg i.p. x j 1,5,9): 1,2654±0,06 g
- nombre de souris vivantes/total ([1]; 250 mg/kg i.p. x j 1,5,9): 250 " ( 9/9 )
- nombre de souris vivantes/total ([1]; 300 mg/kg i.p. x j 1,5,9): 300xj 1,5,9 (10/10)
- T/C (%) (MELANOME B16; 100 mg/kg i.p. j 1-9): 103%
- Volume moyen de la tumeur (cm^3 ± S.E.) (MELANOME B16; 100 mg/kg i.p. j 1-9, jour 17): 1,01±0,15 cm^3
- Volume moyen de la tumeur (cm^3 ± S.E.) (MELANOME B16; 100 mg/kg i.p. j 1-9, jour 20): 1,71±0,13* cm^3
- Volume moyen de la tumeur (cm^3 ± S.E.) (MELANOME B16; 100 mg/kg i.p. j 1-9, jour 24): 3,39±0,34* cm^3
- Volume moyen de la tumeur (cm^3 ± S.E.) (MELANOME B16; 100 mg/kg i.p. j 1-9, jour 27): 3,75±0,29 cm^3
- nombre de souris vivantes/total (MELANOME B16; 100 mg/kg i.p. j 1-9, jour 27): 9/10
- T/C (%) (MELANOME B16; 200 mg/kg i.p. j 1,5,9): 120%
- Volume moyen de la tumeur (cm^3 ± S.E.) (MELANOME B16; 200 mg/kg i.p. j 1,5,9, jour 13): 0,52±0,08* cm^3
- Volume moyen de la tumeur (cm^3 ± S.E.) (MELANOME B16; 200 mg/kg i.p. j 1,5,9, jour 17): 1,17±0,14* cm^3
- Volume moyen de la tumeur (cm^3 ± S.E.) (MELANOME B16; 200 mg/kg i.p. j 1,5,9, jour 20): 1,66±0,15* cm^3
- Volume moyen de la tumeur (cm^3 ± S.E.) (MELANOME B16; 200 mg/kg i.p. j 1,5,9, jour 24): 3,72±0,29* cm^3
- Volume moyen de la tumeur (cm^3 ± S.E.) (MELANOME B16; [4]): 4,98±0,56 cm^3
- nombre de souris vivantes/total (MELANOME B16; [4]): 8/10
- T/C (%) (MELANOME B16; 200 mg/kg i.p. j 1-9): 138%
- Volume moyen de la tumeur (cm^3 ± S.E.) (MELANOME B16; 200 mg/kg i.p. j 1-9, jour 20): 0,12±0,08* cm^3
- Volume moyen de la tumeur (cm^3 ± S.E.) (MELANOME B16; 200 mg/kg i.p. j 1-9, jour 24): 1,22±0,17* cm^3
- Volume moyen de la tumeur (cm^3 ± S.E.) (MELANOME B16; 200 mg/kg i.p. j 1-9, jour 27): 2,06±0,23 cm^3
- nombre de souris vivantes/total (MELANOME B16; 200 mg/kg i.p. j 1-9, jour 27): 9/9
- T/C (%) (MELANOME B16; 300 mg/kg i.p. j 1,5,9): 104%
- Volume moyen de la tumeur (cm^3 ± S.E.) (MELANOME B16; 300 mg/kg i.p. j 1,5,9, jour 13): 0,44±0,06* cm^3
- Volume moyen de la tumeur (cm^3 ± S.E.) (MELANOME B16; 300 mg/kg i.p. j 1,5,9, jour 17): 1,72±0,12* cm^3
- Volume moyen de la tumeur (cm^3 ± S.E.) (MELANOME B16; 300 mg/kg i.p. j 1,5,9, jour 20): 2,67±0,24* cm^3
- Volume moyen de la tumeur (cm^3 ± S.E.) (MELANOME B16; 300 mg/kg i.p. j 1,5,9, jour 24): 5,36±0,42* cm^3
- Volume moyen de la tumeur (cm^3 ± S.E.) (MELANOME B16; [5]): 5,96±0,22 cm^3
- nombre de souris vivantes/total (MELANOME B16; [5]): 6/10
- T/C (%) (LEUCEMIE L1210; Tableau 1, 25 mg/kg i.p. x j 1,5,9): 117%
- T/C (%) (LEUCEMIE L1210; Tableau 1, 25 mg/kg i.p. x j 1-9): 131%
- T/C (%) (LEUCEMIE L1210; Tableau 1, 50 mg/kg i.p. x j 1): 131%
- T/C (%) (LEUCEMIE L1210; Tableau 1, 50 mg/kg i.p. x j 1,5,9): 131%
- T/C (%) (LEUCEMIE L1210; Tableau 1, 50 mg/kg i.p. x j 1-9): 150%
- T/C (%) (LEUCEMIE L1210; Tableau 1, 75 mg/kg i.p. x j 1-9): 140%
- T/C (%) (LEUCEMIE L1210; Tableau 1, 100 mg/kg i.p. x j 1): 125%
- T/C (%) (LEUCEMIE L1210; Tableau 1, 100 mg/kg i.p. x j 1,5,9): 137%
- T/C (%) (LEUCEMIE L1210; Tableau 1, 100 mg/kg i.p. x j 1-9): 140%
- T/C (%) (LEUCEMIE L1210; Tableau 1, 150 mg/kg i.p. x j 1-9): 170%
- T/C (%) (LEUCEMIE L1210; Tableau 1, 200 mg/kg i.p. x j 1): 156%
- T/C (%) (LEUCEMIE L1210; Tableau 1, 200 mg/kg i.p. x j 1,5,9): 159%
- T/C (%) (LEUCEMIE L1210; Tableau 1, 300 mg/kg i.p. x j 1): 135%
- T/C (%) (LEUCEMIE L1210; Tableau 1, 300 mg/kg i.p. x j 1,5,9): 164%
- T/C (%) (LEUCEMIE L1210; Tableau 1, 400 mg/kg i.p. x j 1): 130%
- T/C (%) (LEUCEMIE L1210; Tableau 1, 12,5 mg/kg i.p. x j 1-9): 112%
- T/C (%) (LEUCEMIE L1210; Tableau 10, 25 mg/kg i.p. x j 1-9): 141%
- T/C (%) (LEUCEMIE L1210; Tableau 10, 50 mg/kg i.p. x j 1,5,9): 123%
- T/C (%) (LEUCEMIE L1210; Tableau 10, 50 mg/kg i.p. x j 1-9): 152%
- T/C (%) (LEUCEMIE L1210; Tableau 10, 100 mg/kg i.p. x j 1): 135%
- T/C (%) (LEUCEMIE L1210; Tableau 10, 100 mg/kg i.p. x j 1,5,9): 152%
- T/C (%) (LEUCEMIE L1210; Tableau 10, 100 mg/kg i.p. x j 1-9): 170%
- T/C (%) (LEUCEMIE L1210; Tableau 10, 150 mg/kg i.p. x j 1,5,9): 176%
- T/C (%) (LEUCEMIE L1210; Tableau 10, 150 mg/kg i.p. x j 1-9): 182%
- T/C (%) (LEUCEMIE L1210; Tableau 10, 200 mg/kg i.p. x j 1): 147%
- T/C (%) (LEUCEMIE L1210; Tableau 10, 250 mg/kg i.p. x j 1,5,9): 194%
- T/C (%) (LEUCEMIE L1210; Tableau 10, 300 mg/kg i.p. x j 1): 158%
- T/C (%) (LEUCEMIE L1210; Tableau 10, 400 mg/kg i.p. x j 1): Δ
- activité sur la leucémie L1210 (result in words) (LEUCEMIE L1210; quel que soit le protocole utilisé): relativement faible
